# Several values for one entry are separate records, joined by “and”; a condition that tells them apart may be missing. Equal entries are not always repeated.
# Key:
# [1] = target: Glycogen synthase kinase-3 alpha (Homo sapiens, UniProt P49840); experiment: TR-FRET Assay
# Summary of the method: (§1)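 Signal is measured as TR-FRET between a terbium anti-phospho-Ser641 antibody and streptavidin-d2, added after an EDTA quench. Compounds are preincubated 30 min in assay buffer.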
# [2] = target: Glycogen synthase kinase-3 beta (Homo sapiens, UniProt P49841); experiment: TR-FRET Assay
# Summary of the method: as §1
# Sequence of Glycogen synthase kinase-3 beta (P49841 whole entry): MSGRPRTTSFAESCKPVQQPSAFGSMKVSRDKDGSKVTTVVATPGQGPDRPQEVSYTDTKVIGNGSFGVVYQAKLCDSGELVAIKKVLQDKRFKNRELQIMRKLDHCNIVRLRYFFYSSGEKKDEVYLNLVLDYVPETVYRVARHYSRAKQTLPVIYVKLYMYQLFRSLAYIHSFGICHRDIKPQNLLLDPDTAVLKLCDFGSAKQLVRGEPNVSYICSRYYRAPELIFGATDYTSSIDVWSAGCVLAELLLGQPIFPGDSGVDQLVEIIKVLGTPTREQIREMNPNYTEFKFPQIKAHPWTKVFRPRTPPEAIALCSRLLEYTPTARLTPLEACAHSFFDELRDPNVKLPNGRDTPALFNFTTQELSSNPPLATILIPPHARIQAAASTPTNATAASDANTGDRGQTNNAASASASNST
# Sequence of Glycogen synthase kinase-3 alpha (P49840 whole entry): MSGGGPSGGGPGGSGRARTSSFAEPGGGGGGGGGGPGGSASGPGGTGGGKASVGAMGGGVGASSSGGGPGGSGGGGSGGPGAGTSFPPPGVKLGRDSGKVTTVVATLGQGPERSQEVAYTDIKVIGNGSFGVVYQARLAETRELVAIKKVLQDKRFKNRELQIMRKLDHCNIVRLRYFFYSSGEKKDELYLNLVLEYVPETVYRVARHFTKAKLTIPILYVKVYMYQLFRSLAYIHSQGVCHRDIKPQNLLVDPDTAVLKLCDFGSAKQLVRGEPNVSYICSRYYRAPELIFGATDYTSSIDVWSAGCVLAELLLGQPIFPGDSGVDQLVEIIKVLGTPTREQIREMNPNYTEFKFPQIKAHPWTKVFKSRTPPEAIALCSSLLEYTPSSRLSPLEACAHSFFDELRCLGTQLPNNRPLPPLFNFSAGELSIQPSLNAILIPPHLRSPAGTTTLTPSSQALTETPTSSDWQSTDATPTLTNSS
IC50 [1],IC50 [2],Structure (SMILES)
< 100 nM,< 100 nM,"CC1(C)CC(=O)C2=C(C1)NC1=C(CN=N1)C21CCN(S(=O)(=O)c2ccc3c(c2)CCO3)CC1 [US20250313563, Compound 913251]"
100 to 1000 nM,100 to 1000 nM,"CC1(C)CC(=O)C2=C(C1)NC1=C(CN=N1)C21CCC1 [US20250313563, Compound 874509]"
< 100 nM,< 100 nM and 100 to 1000 nM,"CC[C@]1(c2cccc(-c3c(C)nnn3C)c2)C2=CN=NC2NC2=C1C(=O)CC(C)(C)C2 (stereo partly drawn) [US20250313563, Compound 946099]"
100 to 1000 nM,> 5000 nM,"CCn1cc(N2CCC3=C(C2=O)[C@](CC)(c2cccc(C(F)(F)F)c2)C2=CN=NC2N3)cn1 (stereo partly drawn) [US20250313563, Compound 949868]"
< 100 nM,100 to 1000 nM,"CC[C@@]1(c2cccc(-c3ccccc3)c2)C2=CN=NC2NC2=C1C(=O)CC(C)(C)C2 (stereo partly drawn) [US20250313563, Compound 801368]"
< 100 nM,100 to 1000 nM,"CC1(C)CC(=O)C2=C(C1)NC1=C(CN=N1)[C@@]21CCCN(S(=O)(=O)C2CC2)CC1 [US20250313563, Compound 932639]"
< 100 nM,< 100 nM,"Cc1ccc(S(=O)(=O)N2CCC3(CC2)C2=C(N=NC2)NC2=C3C(=O)CC(C)(C)C2)cc1Cl [US20250313563, Compound 947241]"
< 100 nM,< 100 nM,"CC1(C)CC(=O)C2=C(C1)NC1=C(CN=N1)C21CN(S(=O)(=O)c2ccccn2)C1 [US20250313563, Compound 913262]"
1000 to 5000 nM,> 5000 nM,"CC1(C)CC(=O)C2=C(C1)NC1=C(CN=N1)C21CS(=O)(=O)C1 [US20250313563, Compound 912170]"
< 100 nM and 100 to 1000 nM,< 100 nM and 1000 to 5000 nM,"CC[C@]1(c2cccc(C(F)(F)F)c2)C2=CN=NC2NC2=C1C(=O)C[C@H](C)C2 (stereo partly drawn) [US20250313563, Compound 810450]"
< 100 nM,100 to 1000 nM,"CCC1(c2cccc(O)c2)C2=C(N=NC2)NC2=C1C(=O)CC(C)(C)C2 (stereo not drawn) [US20250313563, Compound 930334]"
100 to 1000 nM,1000 to 5000 nM,"CCC1(c2cccc(-c3ccnc(C)c3)c2)C2=C(N=NC2)NC2=C1C(=O)C(C)(C)C2 (stereo not drawn) [US20250313563, Compound 949840]"
100 to 1000 nM,100 to 1000 nM,"CCC1(c2cccc(Cc3ncccc3C(F)(F)F)c2)C2=CN=NC2NC2=C1C(=O)CC(C)(C)C2 (stereo not drawn) [US20250313563, Compound 947548]"
< 100 nM,< 100 nM,"CCC1(c2cccc(N(CCc3ccccc3)C(C)=O)c2)C2=CN=NC2NC2=C1C(=O)CC(C)(C)C2 (stereo not drawn) [US20250313563, Compound 912064]"
> 5000 nM,> 5000 nM,"CC[C@]1(c2cccc(N3CCOc4ccccc43)c2)C2=CN=NC2NC2=C1C(=O)CC(C)(C)C2 (stereo partly drawn) [US20250313563, Compound 932635]"
> 5000 nM,> 5000 nM,"CC1(C)CC(=O)C2=C(C1)NC1=C(CN=N1)[C@@]2(C)c1cccc(-c2ccccc2)c1 [US20250313563, Compound 801366]"
100 to 1000 nM,1000 to 5000 nM,"CC1(C)CC(=O)C2=C(C1)NC1=C(CN=N1)[C@]21CCO[C@@H](C(C)(C)C)C1 [US20250313563, Compound 912106]"
100 to 1000 nM,> 5000 nM,"CC[C@@]1(c2cccc(-c3cnn(CC(=O)N(C)C)c3)c2)C2=CN=NC2NC2=C1C(=O)NC(C)(C)C2 (stereo partly drawn) [US20250313563, Compound 952208]"
100 to 1000 nM,1000 to 5000 nM,"CC[C@]1(c2cccc(-c3ccnc(C)c3F)c2)C2=CN=NC2NC2=C1C(=O)NC(C)(C)C2 (stereo partly drawn) [US20250313563, Compound 948311]"
100 to 1000 nM,1000 to 5000 nM,"CC[C@]1(c2cccc(C(F)(F)F)c2)C2=CN=NC2NC2=C1C(=O)N(c1cnc(OC)nc1)[C@@H](C)C2 (stereo partly drawn) [US20250313563, Compound 949354]"

IC50 [1],IC50 [2],Structure (SMILES)
1000 to 5000 nM,1000 to 5000 nM,"CC[C@@]1(c2cccc(N3CCOCC3)c2)C2=C(CC(C)(C)CC2=O)NC2N=NC(C(F)(F)F)=C21 (stereo partly drawn) [US20250313563, Compound 816886]"
< 100 nM,< 100 nM,"CCC1(c2cccc(N(Cc3ccccc3)C(C)=O)c2)C2=CN=NC2NC2=C1C(=O)CC(C)(C)C2 (stereo not drawn) [US20250313563, Compound 884110]"
< 100 nM and 100 to 1000 nM,< 100 nM and 1000 to 5000 nM,"CC[C@]1(c2cccc(-c3c(F)cncc3OC)c2)C2=C(N=NC2)NC2=C1C(=O)C(C)(C)C2 [US20250313563, Compound 952564]"
< 100 nM,100 to 1000 nM,"CC[C@@]1(c2cccc(-c3ccnc(C)c3)c2)C2=C(CC(C)(C)NC2=O)NC2N=NC(C)=C21 (stereo partly drawn) [US20250313563, Compound 948420]"
100 to 1000 nM,1000 to 5000 nM,"CCC1(c2cccc(C(F)(F)F)c2)C2=CN=NC2NC2=C1C(=O)N(c1nn(C)cc1C)CC2 (stereo not drawn) [US20250313563, Compound 950486]"
< 100 nM,100 to 1000 nM,"CC1(C)CC(=O)C2=C(C1)NC1=C(CN=N1)C21COC2(CN(C(=O)C3CCC(F)(F)C3)C2)C1 (stereo not drawn) [US20250313563, Compound 947265]"
< 100 nM,< 100 nM and 100 to 1000 nM,"CC(=O)N1CC2(C1)CC1(CO2)C2=C(N=NC2)NC2=C1C(=O)CC(C)(C)C2 (stereo not drawn) [US20250313563, Compound 913058]"
100 to 1000 nM,100 to 1000 nM,"CCC1(c2cccc(N3CCCCC3)c2)C2=CN=NC2NC2=C1C(=O)CC(C)(C)C2 (stereo not drawn) [US20250313563, Compound 801320]"
< 100 nM,100 to 1000 nM,"CCC1(c2cccc(-c3ccnc(CCO)c3)c2)C2=CN=NC2NC2=C1C(=O)CC(C)(C)C2 (stereo not drawn) [US20250313563, Compound 945992]"
100 to 1000 nM,> 5000 nM,"CCC1(c2cccc(CN(C)C(=O)COC)c2)C2=CN=NC2NC2=C1C(=O)CC(C)(C)C2 (stereo not drawn) [US20250313563, Compound 865196]"
< 100 nM,< 100 nM,"CC1(C)CC(=O)C2=C(C1)NC1=C(CN=N1)C21CCN(S(=O)(=O)c2cnn(-c3ccccc3)c2)CC1 [US20250313563, Compound 947904]"
< 100 nM,< 100 nM,"C[C@@H]1CCC[C@@]2(C1)C1=C(N=NC1)NC1=C2C(=O)CC(C)(C)C1 [US20250313563, Compound 874532]"
> 5000 nM,> 5000 nM,"CC[C@]1(c2cccc(-c3cnn(Cc4cccc(C(F)(F)F)c4)c3)c2)C2=CN=NC2NC2=C1C(=O)NC(C)(C)C2 (stereo partly drawn) [US20250313563, Compound 949513]"
< 100 nM,< 100 nM,"CC1(C)CC(=O)C2=C(C1)NC1=C(CN=N1)C21CCCC1 [US20250313563, Compound 790666]"
> 5000 nM,> 5000 nM,"CC[C@@]1(c2cccc(C(F)(F)F)c2)C2=CN=NC2NC2=C1C(=O)N(c1ccccc1)CC2 (stereo partly drawn) [US20250313563, Compound 929475]"
< 100 nM,100 to 1000 nM,"CC[C@]1(c2cccc(-c3ncnn3C)c2)C2=CN=NC2NC2=C1C(=O)CC(C)(C)C2 (stereo partly drawn) [US20250313563, Compound 945472]"
< 100 nM,< 100 nM,"CCC1(c2cccc(-c3c(C)cncc3C)c2)C2=CN=NC2NC2=C1C(=O)CC(C)(C)C2 (stereo not drawn) [US20250313563, Compound 945703]"
< 100 nM,< 100 nM,"CCC1(c2cccc(S(C)(=O)=O)c2)C2=CN=NC2NC2=C1C(=O)NC(C)(C)C2 (stereo not drawn) [US20250313563, Compound 944020]"
< 100 nM,1000 to 5000 nM,"CCC1(c2cccc(-c3cnn(C)c3)c2)C2=CN=NC2NC2=C1C(=O)CC(C)C2 (stereo not drawn) [US20250313563, Compound 816752]"

# Source: BindingDB's records for patent US20250313563 (The Broad Institute, 2025)
